# Tests used:
# [1] = tested on: murine bone marrow-derived macrophages; experiment: Osteoclast formation from murine BMMs (TRAP staining); assay type: cell-based, mouse; details: M-CSF and RANKL, 4 days
# [2] = tested on: phosphorylation of Btk, PLC-γ2, Erk; experiment: Phospho-flow cytometry of BCR-crosslinked human PBMCs; assay type: cell-based; details: anti-IgM F(ab')2
# Protocol: For phospho-flow, B cells were activated by crosslinking their BCRs with anti-human IgM antibodies (10 μg/mL; BD Biosciences) for 10 minutes at 37 °C. Cells were then fixed with 2 % paraformaldehyde at 37 °C for 12 minutes, permeabilized, and stained with anti-CD3-FITC (SK7; BD Biosciences), anti-CD20-PerCP-Cy5.5 (H1; BD Biosciences), anti-pBtk (Y223)-Alexa647 (N35-86; BD Biosciences), anti-pPLCγ2 (Y759)-Alexa647 (K86-689.37; BD Biosciences), anti-pSTAT1 (Y701)-Alexa647 (4a; BD Biosciences), anti-pSTAT3 (Y705)-Alexa647 (4/P-STAT3; BD Biosciences), anti-pSTAT5 (Y694)-Alexa647 (47; BD Biosciences), and anti-pERK1/2 (T202/204)-Alexa647 (20A; BD Biosciences) antibodies. The cells were then washed and analyzed on an LSR II flow cytometer (BD Biosciences). Data were analyzed using FlowJo software, version 8.8 (Treestar, Ashland, OR, USA).
# human CD14+ monocytes = experiment: Osteoclast formation from human CD14+ cells (TRAP staining); assay type: cell-based; details: Monocyte, 1000 nM
# Protocol: Isolated human CD14 cells (1 × 10^5 cells per well) were cultured in a 96-well plate at 37 °C in alpha-minimum essential medium (MEM) supplemented with 10 % FBS and 25 ng/mL M-CSF (Sigma-Aldrich) in the presence of increasing concentrations of HM71224. RANKL (100 ng/mL, Sigma-Aldrich) was added after 3 days. The medium was replaced every 3 days. On day 9, cells were fixed with 3 % formaldehyde and stained for tartrate-resistant acid phosphatase (TRAP) expression (Sigma-Aldrich). To drive osteoclast formation from bone morrow cells, BMMs (4 × 10^4 per well) were stimulated with 30 ng/mL M-CSF and 100 ng/mL RANKL in the presence of increasing concentrations of HM71224 for 4 days. TRAP+ cells with three or more nuclei were counted as osteoclasts.
# [3] = tested on: phosphorylation of Btk and PLCγ2 in primary human B cells; experiment: BCR signaling in primary human B cells (immunoblot); assay type: cell-based; details: BCR ligation
# Protocol: (§1) Ramos cells or human B cells were pretreated with the indicated concentrations of HM71224 and then stimulated with anti-IgM F(ab’)2 (Southern Biotech, Birmingham, AL, USA) for 10 minutes on ice. Cells were then lysed in RIPA buffer (Sigma-Aldrich), and the proteins were separated by SDS-PAGE (Bio-Rad Laboratories, Hercules, CA, USA), transferred onto polyvinylidene fluoride (PVDF) membranes, and immunoblotted with anti-pBtk Y223 (catalog number 5082; Cell Signaling Technology, Danvers, MA, USA), anti-pPLCγ2 Y759 (catalog number 3874; Cell Signaling Technology), anti-pPLCγ2 Y1217 (Cell Signaling Technology), anti-pERK T202/204 (197G2; Cell Signaling Technology), anti-Btk (C82B8; Cell Signal Technology), anti-PLCγ2 (catalog number 3872; Cell Signal Technology), anti-ERK1/2 (3A7; Cell Signaling Technology), and anti-GAPDH (FL-335; Santa Cruz Biotechnology, Santa Cruz, TX, USA) antibodies.
# [4] = tested on: phosphorylation of Btk and PLCγ2 in Ramos cells; experiment: BCR signaling in anti-IgM stimulated Ramos cells (immunoblot); assay type: cell-based, human
# Protocol: as §1
# The Ramos B cell lymphoma cell line was chosen to study the inhibitory effects of HM71224 on the BCR signaling cascade as it endogenously expresses Btk [14]. […] Ramos cells were incubated with 100 nM HM71224 for 1 h. After washing, the cells were stimulated with anti-IgM F(ab’)2.
structure (smiles),measurement,setting,value
C=CC(=O)Nc1cccc(Oc2nc(Nc3ccc(N4CCN(C)CC4)cc3)nc3ccoc23)c1 [HM71224],Osteoclast formation from murine BMMs,[1],inhibited osteoclast formation from murine BMMs
same,Phosphorylation of Btk and Erk by phospho-flow,[2],"inhibited phosphorylation of BTK, and p-Erk in a dose-dependent manner"
same,inhibition at 1 µM,human CD14+ monocytes,~50%
same,Phosphorylation of Btk and PLCγ2,[3],effectively inhibited
same,Duration of inhibition of BTK phosphorylation after washout,"[4]; 100 nM for 1 h, washed, then anti-IgM F(ab')2",at least 24 h
same,Phosphorylation of Btk and PLCγ2,[4]; anti-IgM F(ab')2,decreased markedly

# From PMC4835877, “HM71224, a novel Bruton’s tyrosine kinase inhibitor, suppresses B cell and monocyte activation and ameliorates arthritis in a mouse model: a potential drug for rheumatoid arthritis” (Arthritis Research & Therapy, 2016)
